Like-named read-outs stand apart in the source and are kept apart here.

Experiment [1] has as its system IRF pathway in THP1-Dual STING reporter cells. In words: STING THP1 Reporter Assay, IRF pathway (secreted Lucia luciferase). The experiment is classed as cell-based, human. The settings on record: 100% = 100 μM cGAMP. From the text: (§1) THP1-Dual™ cells were derived from the human THP-1 monocyte cell line by stable integration of two inducible reporter constructs. To this end, THP1-Dual™ cells allow the simultaneous study of the NF-κB pathway, by monitoring the activity of SEAP, and the IRF pathway by assessing the activity of a secreted luciferase (Lucia). Both reporter proteins are readily measurable in the cell culture supernatant when using QUANTI-Blue™, a SEAP detection reagent, and QUANTI-Luc™, a luciferase detection reagent.
(§2) THP1-Dual™ cells induce the activation of NF-κB in response to STING agonists. They also trigger the IRF pathway upon stimulation with STING agonists, such as cGAMP. Here, the THP-1-Dual cells were used to assess STING binders for function on the cellular level.
(§3) Serial dilutions of compounds in DMSO were added to low volume 384 well plates at 100 nl/well using an ECHO acoustic dispenser (Labcyte, model 550) to achieve final starting concentration of 100 μM in cell suspension. […] One column of the plate was reserved for treatment with cGAMP at 100 μM for 100% activation calculation and one column for no treatment (DMSO only) for baseline activation. Plates were then incubated in 37° C. incubator at 5% CO2 for 20 hours.
(§4) In the SEAP assay, 5 μl of 2× QuantiBlue (Invivogen, cat #Rep-qb2) is added to 384 well black plates seeded with THP1 cells and incubated at 37° C. for 2 hours. Plates were read on the Envision (Perkin Elmer) at 620 nm wavelength (OD620). In the luciferase assay, 5 μl of Quantiluc (Invivogen, Rep-qlc2) is added to white 384 well plates seeded with THP1 cells and read at 5 minutes on the Envision (Perkin Elmer) using a luminescence protocol (RLU). For both cell lines, 100% activation was determined by value (RLU) of THP-1 Dual STING cells stimulated with 100 μM cGAMP (Invivogen, cat #TLRL-NACGA23-5).

Experiment [2] relates to NF-κB pathway in THP1-Dual STING reporter cells. Briefly: STING THP1 Reporter Assay, NF-κB pathway (SEAP). The experiment is classed as cell-based, human. The settings on record: 100% = 100 μM cGAMP.
Description: as §1, §2, §3, §4
(In general: Reporter assays use an easily measured gene product as a stand-in for the process of interest.)

The target of experiment [3] is T1, STING WT: His-TVMV-S-hSTING(155-341)-H232R (Homo sapiens, UniProt Q86WV6, H232R).
T1 construct: STING WT: His-TVMV-S-hSTING(155-341)-H232R
Briefly: STING HTRF Binding Assay, STING WT. The settings on record: 20 nM His-tagged STING cytoplasmic domain, 200 nM fluorescein-labeled cGAMP analog probe, one hour; read-out: HTRF Binding Assays IC50 (μM) STING WT. As for the experimental part:
(§5) A time resolved FRET-based competition binding assay was used to assess test article binding to STING WT and STING AQ. His-tagged STING cytoplasmic domain (WT or AQ) at a concentration of 20 nM was incubated with 2.5 nM Tb-labeled anti-His antibody, test compound, and fluorescein-labeled cGAMP analog probe (BioLog cat. no. C195) at a concentration of 200 nM (STING WT) or 40 nM (STING AQ) in PBS containing 0.005% Tween-20 and 0.1% BSA for one hour. Fluorescence at 495 nm and 520 nm was measured using an EnVision microplate reader to quantify FRET between Tb-labeled anti-His antibody and fluorescein-labeled probe. Background was defined as the signal obtained in the absence of STING protein, and background subtracted FRET ratios were normalized to the maximum signal obtained in the absence of test compound. These values were converted to a percent inhibition. Percent inhibition was determined for test compounds at 11 concentrations. The IC50, defined as the concentration of competing test compound needed to reduce specific binding of the probe by 50%, was calculated using the 4 parameter logistic equation to fit the data
Background: In TR-FRET formats the signal depends on donor and acceptor labels being close together.

For experiment [4], the target named is T2, STING AQ: His-TVMV-S-hSTING(155-341)-G230A-R293Q (Homo sapiens, UniProt Q86WV6, G230A/H232R/R293Q).
T2 construct: STING AQ: His-TVMV-S-hSTING(155-341)-G230A-R293Q
In words: STING HTRF Binding Assay, STING AQ. The settings on record: 20 nM His-tagged STING cytoplasmic domain, 40 nM fluorescein-labeled cGAMP analog probe, one hour; read-out: HTRF Binding Assays IC50 (μM) STING AQ. The method, then:
as §5

Where [5] appears, read: read-out: THP1 Reporter Assays EC50 (μM) IRF3, THP1-Dual cells, 10% human plasma, 20 hours, luciferase.
[6] abbreviates: read-out: THP1 Reporter Assays EC50 (μM) NFkB, THP1-Dual cells, 10% human plasma, 20 hours, SEAP.
[7] abbreviates: Homo sapiens, THP1-Dual, 20 h, THP1-Dual cells, 10% human plasma, 20 hours, luciferase, read-out: THP1 Reporter Assays EC50 (μM) IRF3.
Setting [8] is: Homo sapiens, THP1-Dual, 20 h, THP1-Dual cells, 10% human plasma, 20 hours, SEAP, read-out: THP1 Reporter Assays EC50 (μM) NFkB.

T2 sequence (Q86WV6 with tags, fused parts or gaps G230A/H232R/R293Q): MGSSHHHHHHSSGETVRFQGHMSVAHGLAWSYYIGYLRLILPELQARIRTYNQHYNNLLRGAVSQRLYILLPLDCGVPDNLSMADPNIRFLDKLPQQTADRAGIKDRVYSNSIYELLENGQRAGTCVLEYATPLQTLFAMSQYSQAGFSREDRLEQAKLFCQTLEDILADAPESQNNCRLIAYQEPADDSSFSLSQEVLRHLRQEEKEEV
T1 sequence (Q86WV6 with tags, fused parts or gaps H232R): as the sequence (Q86WV6 with tags, fused parts or gaps G230A/H232R/R293Q) above, with A99G, Q162R counted along it

Consider `Nc1ncnc2c1ncn2[C@@H]1O[C@@H]2COP(=O)(S)O[C@H]3[C@@H](F)[C@H](n4cnc5c4ncn4ncnc54)O[C@@H]3COP(=O)(S)O[C@H]2[C@H]1F` (single isomer, unassigned) [Example 12-4], for which the EC50 came to 0.06 µM in experiment [1] (setting [5]) and 1.09 µM in experiment [2] (THP1-Dual cells, 10% human plasma, 20 hours, SEAP, read-out: THP1 Reporter Assays EC50 (μM) NFkB). Besides, the IC50 worked out at 0.002 µM in experiment [3] and 0.005 µM in experiment [4].

In the case of `Nc1ncnc2c1ncn2[C@@H]1O[C@@H]2COP(=O)(S)O[C@H]3[C@@H](O)[C@H](n4cnc5c4ncn4ncnc54)O[C@@H]3COP(=O)(O)O[C@H]2[C@H]1F` (single isomer, unassigned) [Example 10-1], the EC50 in experiment [1] (setting [5]) and in experiment [2] (setting [6]) was > 100 µM throughout. For the same compound, the results for the IC50 in experiment [3] and in experiment [4] were 2.5 µM and 0.04 µM, respectively.

In the case of `O=c1[nH]cnc2c1ncn2[C@@H]1O[C@@H]2COP(=O)(O)O[C@H]3[C@@H](O)[C@H](n4cnc5c4ncn4ccnc54)O[C@@H]3COP(=O)(O)O[C@H]2[C@H]1O` [Example 18], the half-maximal effective concentration (EC50) in experiment [1] (setting [7]) and in experiment [2] (setting [8]) was > 100 µM throughout. The IC50 in experiment [3] worked out at 25.3 µM; in experiment [4], 0.49 µM.

For `Nc1ncnc2c1ncn2[C@@H]1O[C@@H]2COP(=O)(O)O[C@H]3[C@@H](O)[C@H](n4cnc5c(=O)n6ccnc6[nH]c54)O[C@@H]3COP(=O)(O)O[C@H]2[C@H]1F` [Example 2, (1S,6R,8R,9R,10R,15R,17R,18R)-8-(6-amino-9H-purin-9-yl)-9-fluoro-3,12,18-trihydroxy-17-{9-oxo-3H,4H,9H-imidazo[1,2-a]purin-3-yl}-2,4,7,11,13,16-hexaoxa-3λ^5,12λ^5-diphosphatricyclo[13.3.0.0^6,10]octadecane-3,12-dione], the EC50 in experiment [1] (Homo sapiens, THP1-Dual, 20 h, read-out: THP1 Reporter Assays EC50 (μM) IRF3, THP1-Dual cells, 10% human plasma, 20 hours, luciferase) was found to be 2.36 µM; in experiment [2] (Homo sapiens, THP1-Dual, 20 h, read-out: THP1 Reporter Assays EC50 (μM) NFkB, THP1-Dual cells, 10% human plasma, 20 hours, SEAP), 4.38 µM. The IC50 amounted to 0.04 µM in experiment [3] and 0.01 µM in experiment [4].

As for `Nc1nc2c(ncn2[C@@H]2O[C@@H]3COP(=O)(O)O[C@H]4[C@@H](O)[C@H](n5cnc6c(N)ncnc65)O[C@@H]4COP(=O)(S)O[C@H]3[C@H]2O)c(=O)[nH]1` (stereo partly drawn) [Example 15, (1S,8R,9R,10S,15R,17R,18R)-8-(2-amino-6-oxo-6,9-dihydro-1H-purin-9-yl)-17-(6-amino-9H-purin-9-yl)-3,9,18-trihydroxy-12-sulfanyl-2,4,7,11,13,16-hexaoxa-3λ^5,12λ^5-diphosphatricyclo[13.3.0.0^6,10]octadecane-3,12-dione], the EC50 in experiment [1] (setting [7]) and in experiment [2] (setting [8]) was > 100 µM in each case. Further, the IC50 in experiment [3] stood at 9.55 µM; in experiment [4], 0.83 µM.

As to `Nc1ncnc2c1ncn2[C@@H]1O[C@@H]2COP(=O)(S)O[C@H]3[C@@H](F)[C@H](n4cnc5c4ncn4ccnc54)O[C@@H]3COP(=O)(S)O[C@H]2[C@H]1F` (single isomer, unassigned) [Example 21-1], the EC50 is 28.2 µM in experiment [1] (setting [5]) and 34.6 µM in experiment [2] (setting [6]). The values for the IC50 in experiment [3] and in experiment [4] were 0.32 µM and 0.01 µM, respectively.

As a reminder, the EC50 is the concentration needed to bring the measured effect to its halfway point. The term IC50 denotes the concentration at which inhibition is half-maximal.

The values above are taken from patent US11660311B2, “Cyclic dinucleotides as anticancer agents” (priority 2017, dated 2023).
